Assay results: patent US20080103086A1, “METHODS FOR THE TREATMENT OF DISEASES ASSOCIATED WITH THE SECRETION OF HMGB1” (priority 2006, published 2008)

How the values were obtained:
[1] = test system: HMGB1-GFP; experiment: HMGB1-GFP imaging in transfected RAW 264.7 cells; format: cell-based, Murine; details: OA 100 nM 4 h, TSA 10 ng/mL 2 h, TNF-α 20 ng/mL 16 h
Protocol: RAW 264.7 cells (A) and human PBMo cells (B) were treated with OA (100 nM for 8 h), and immunofluorescent staining was performed to observe the HMGB1. TNF-α (20 ng/mL for 16 h) was used as a positive control cytokine. […] (C) Western blot analysis of HMGB1 protein in the culture supernatants of PBMo cells, which were from (B). (D) HMGB1 in the nucleus is transported to the cytoplasm by phosphorylation. RAW 264.7 cells were transfected with a wild type HMGB1-GFP plasmid and cultured for 24 h. And then the cells were treated with 2 μg/mL CHX for 1 h followed by OA treatment for 4 h or by TSA treatment for 2 h and green fluorescent images were observed. Bar: 10 μm.
FIGS. 6A-6E show Mutation of HMGB1 NLS sites alters subcellular distribution of HMGB1. (A) RAW 264.7 cells were transfected with wild-type and each mutant HMGB1-GFP plasmid and immunofluorescent assays were performed 24 h later without any treatment. (B, C, and D) OA (100 nM for 4 h), TSA (10 ng/mL for 2 h), and TNF-α (20 ng/mL for 16 h) were applied 24 h after transfection to observe the effect on HMGB1 nuclear export by phosphorylation, acetylation, or both. […] (E) Secretion of wild-type and each mutant HMGB1-GFP was tested 24 h after transfection by Western blotting. The culture supernatants were concentrated and blotted with anti-GFP. Bar: 10 μm. […]

[2] = test system: HMGB1 binding to KAP-α1; experiment: GST-KAP-α1 pull-down of HMGB1 from treated RAW 264.7 cell lysates; details: GST-KAP-α1 on glutathione-Sepharose beads; WCLs of treated RAW 264.7 cells
Protocol: FIGS. 4A-4C show the binding of HMGB1 to nuclear import proteins. (A) GST-KAP-α1, -2, -3, -4, -5, -6, and -β1 fusion proteins immobilized on glutathione-Sepharose 4B beads were incubated with WCLs of RAW 264.7 cells overnight at 4° C. Sepharose-bound proteins were separated and the membrane was blotted with anti-HMGB1 and reblotted with anti-GST. WCL was loaded as an HMGB1 control (lane 1), and GST protein was used as a negative control (lane 2). (B) Six His-tagged wild type HMGB1 and boxes A (aa 1-87) and B (aa 88-162) HMGB1 proteins were purified from E. coli BL21 and identified at expected size by Coomassie blue staining. HMGB1 and GST-KAP-α1 was incubated for 2 h at 4° C., and the precipitate was blotted with anti-His for HMGB1 and reblotted with anti-GST for KAP-α1. (C) GST-KAP-α1, immobilized on glutathione-Sepharose beads, was incubated with WCLs of RAW 264.7 cells which were treated with OA, TSA, or TNF-α. The precipitates were blotted with anti-HMGB1 and reblotted with anti-GST.
Two μg of each GST-KAP protein was coupled to glutathione sepharose 4B beads and incubated with 500 μg of WCL from RAW 264.7 cells as a HMGB1 source at 4° C. overnight. […]

[3] = test system: HMGB1; experiment: HMGB1 relocation from nucleus to cytoplasm in RAW 264.7 cells (fraction Western blot, immunofluorescence); format: cell-based, Murine; details: OA 100 nM for 8 h, TNF-α 20 ng/mL for 16 h
Protocol: (A) RAW 264.7 cells were treated with TNF-α (20 ng/mL for 16 h) or OA (100 nM for 8 h). The nuclear (Nu) and cytoplasmic (Cyt) proteins were separated and blotted with anti-HMGB1. (B) Metabolic [^32P] labeling of HMGB1 in RAW 264.7 cells. RAW 264.7 cells were metabolically labeled with [^32P]orthophosphate for 4 h, and stimulated with OA (100 nM), TNF-α (20 ng/mL) and LPS (100 ng/mL) for 2 or 8 h. WCLs were immunoprecipitated with rabbit anti-HMGB1 from two different vendors of BD PharMingen (BD) and Upstate Biotechnology (UP). The proteins were resolved and transferred to nitrocellulose membrane and visualized by autoradiography. (C) RAW 264.7 cells were treated with TNF-α, and WCLs were immunoprecipitated with anti-pSer, anti-pTyr, and anti-pThr and blotted with anti-HMGB1. WCL was loaded as an HMGB1 control (lane 1). Anti-pAKT was used for a control antibody (lane 3). […]
To analyze the secretion of HMGB1 in the supernatants, culture media were replaced with serum-free OPTI-MEM (Gibco BRL) medium and concentrated with Amicon Centricon filtration (Millipore) after removing cell debris, and Western blot analysis was performed. […] The cells were lysed using 1% Nonidet P-40 buffer containing a protease inhibitor cocktail (Sigma), and the protein concentrations were measured by Bradford assay (Biorad) for the analysis of whole cell lysates (WCLs). […]

[4] = test system: HMGB1 phosphorylation; experiment: Metabolic [32P] labeling / immunoprecipitation of HMGB1 phosphorylation in RAW 264.7 cells; format: cell-based, Murine
Protocol: (A) RAW 264.7 cells were treated with TNF-α (20 ng/mL for 16 h) or OA (100 nM for 8 h). The nuclear (Nu) and cytoplasmic (Cyt) proteins were separated and blotted with anti-HMGB1. (B) Metabolic [^32P] labeling of HMGB1 in RAW 264.7 cells. RAW 264.7 cells were metabolically labeled with [^32P]orthophosphate for 4 h, and stimulated with OA (100 nM), TNF-α (20 ng/mL) and LPS (100 ng/mL) for 2 or 8 h. WCLs were immunoprecipitated with rabbit anti-HMGB1 from two different vendors of BD PharMingen (BD) and Upstate Biotechnology (UP). The proteins were resolved and transferred to nitrocellulose membrane and visualized by autoradiography. (C) RAW 264.7 cells were treated with TNF-α, and WCLs were immunoprecipitated with anti-pSer, anti-pTyr, and anti-pThr and blotted with anti-HMGB1. WCL was loaded as an HMGB1 control (lane 1). Anti-pAKT was used for a control antibody (lane 3). (D) RAW 264.7 cells were treated with TNF-α for the indicated time. WCLs were immunoprecipitated with anti-HMGB1, blotted with anti-pSer and reblotted with anti-HMGB1. The same culture supernatants were concentrated, separated, and blotted with anti-HMGB1.
To identify the phosphorylated residues of the HMGB1 protein, TNF-α-treated RAW 264.7 cells were lysed with a protease inhibitor cocktail. Cell homogenates were centrifuged at 20,000 g for 15 min and precleared by incubation with protein G-Sepharose (Amersham) at 4° C. for 30 min. The precleared extracts (500 μg) were incubated with rabbit polyclonal anti-pSer, anti-pTyr and anti-pThr (all from Chemicon) and then protein G-Sepharose was added and incubated for 3 h at 4° C. […]
RAW 264.7 cells were cultured in phosphate starved condition of phosphate-free DMEM containing 10% dialyzed FBS (Gibco BRL) for 4 h and further incubated for 4 h by adding 600 μCi of [^32P]orthophosphate (Amersham Pharmacia Biotech) per mL to each dish. […] The concentration of total soluble proteins in the supernatant was quantified using the Bradford reagent (Bio-Rad). […] The gels were dried and the radioactivity was analyzed by autoradiography.

[5] = molecular target: six His-tagged HMGB1 NLS1/2A, not tagged with GFP (UniProt P09429)
[6] = molecular target: six His-tagged wild type HMGB1 (UniProt P09429)
[7] = molecular target: T1, GST-KAP-α1 fusion protein (human, UniProt P52294 1-538); experiment: GST pull-down with GST-KAP-α1 on glutathione-Sepharose beads, anti-His blot
T1 construct: Produced in E. coli BL21, immobilized on glutathione-Sepharose 4B beads; the primers start at the ATG of the coding region; not shown: glutathione S-transferase (GST) tag encoded by vector pGEX-4T-1 (Pharmacia)
Protocol: Direct binding of recombinant HMGB1 protein to KAP-α1 was tested to exclude the possibility that other HMGB1-interacting proteins present in cell lysates could have a role in binding. Purified six His-tagged wild type HMGB1 protein and boxes A (aa 1-87) and B (aa 88-162) proteins, which were identified at expected size by Coomassie blue staining (FIG. 4B, left), were purified from E. coli BL21. Same molar amounts of all wild and truncated forms of HMGB1 were added to GST-KAP-α1, and GST pull-down assay was performed.

T1 sequence (P52294 whole entry, the tested form may be a part): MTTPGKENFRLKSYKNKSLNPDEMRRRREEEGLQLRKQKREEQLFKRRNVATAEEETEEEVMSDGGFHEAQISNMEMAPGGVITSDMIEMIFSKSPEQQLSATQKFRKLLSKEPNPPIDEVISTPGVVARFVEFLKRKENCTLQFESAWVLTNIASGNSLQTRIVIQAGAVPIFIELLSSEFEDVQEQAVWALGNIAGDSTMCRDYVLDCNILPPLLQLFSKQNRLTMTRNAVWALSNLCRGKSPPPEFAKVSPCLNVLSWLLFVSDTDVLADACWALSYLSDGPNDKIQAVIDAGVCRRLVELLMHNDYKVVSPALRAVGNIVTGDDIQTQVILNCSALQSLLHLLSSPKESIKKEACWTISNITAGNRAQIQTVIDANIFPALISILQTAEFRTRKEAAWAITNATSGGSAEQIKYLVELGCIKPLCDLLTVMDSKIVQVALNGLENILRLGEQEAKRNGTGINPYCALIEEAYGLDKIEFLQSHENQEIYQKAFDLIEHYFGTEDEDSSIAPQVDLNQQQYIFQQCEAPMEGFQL

CC(/C=C/C(=O)NO)=C\[C@@H](C)C(=O)c1ccc(N(C)C)cc1 [TSA, trichostatin A]
HMGB1-GFP (wild-type and mutants) relocation 24 h after transfection [1]: the wild-type and all mutant HMGB1-GFPs showed cytoplasmic relocation | binding of HMGB1 from treated cell lysate to KAP-α1 [2]: no binding to KAP-α1

TNF-α
HMGB1-GFP (wild-type and mutants) relocation 24 h after transfection [1]: The same results were observed | HMGB1 in the cytoplasm (nuclear/cytoplasmic fractions, Western blot) [3]: translocation of nuclear HMGB1 to the cytoplasm | level of phosphorylated (p-) HMGB1 (IP anti-HMGB1, blot anti-pSer) ([4]; RAW 264.7 cells treated with TNF-α for the indicated time): increased by TNF-α in a time-dependent manner | phosphorylated amino acid residue of HMGB1 (IP anti-pSer, anti-pTyr, anti-pThr) ([4]; RAW 264.7 cells, 20 ng/mL TNF-α for 16 h): Only serine residues of HMGB1 were phosphorylated | HMGB1 phosphorylation ([32P]orthophosphate labeling, autoradiography) ([4]; RAW 264.7 cells, 100 nM OA, 20 ng/mL TNF-α, 100 ng/mL LPS, 2 or 8 h): phosphorylated

protein kinase C (PKC) protein (Upstate)
in vitro protein kinase assay ([γ-32P]ATP, autoradiography) [5]: showed little or no phosphorylation compared to the WT HMGB1 | in vitro protein kinase assay ([γ-32P]ATP, autoradiography) [6]: PKC phosphorylated WT HMGB1

B1: six His-tagged HMGB1 box B (aa 88-162) (other, human, UniProt P09429 88-162, looked up, not shown: small tags and cut ends)
chain: KFKDPNAPKRPPSAFFLFCSEYRPKIKGEHPGLSIGDVAKKLGEMWNNTAADDKQPYEKKAAKLKEKYEKDIAAY
notes: range 88-162
binding result [7]: no binding

B2: six His-tagged HMGB1 box A (aa 1-87) (other, human, UniProt P09429 1-87, looked up)
chain: MGKGDPKKPRGKMSSYAFFVQTCREEHKKKHPDASVNFSEFSKKCSERWKTMSAKEKGKFEDMAKADKARYEREMKTYIPPKGETKK
notes: range 1-87; Includes NLS1 (aa 28-44); Purified from E. coli BL21; also called boxes A (aa 1-87); not shown: 6×His tag and vector-encoded residues of pRSETB (Invitrogen)
binding result [7]: no binding
